For 39 compounds, IC50 results are on record in patent US7902252B2, “Inhibitors of D-amino acid oxidase” (Sepracor, Inc., priority 2007, dated 2011).

For orientation: IC50 means the concentration that gives 50% inhibition.

Bounds are passed on as bounds.

Chain of Human DAAO (P14920 whole entry): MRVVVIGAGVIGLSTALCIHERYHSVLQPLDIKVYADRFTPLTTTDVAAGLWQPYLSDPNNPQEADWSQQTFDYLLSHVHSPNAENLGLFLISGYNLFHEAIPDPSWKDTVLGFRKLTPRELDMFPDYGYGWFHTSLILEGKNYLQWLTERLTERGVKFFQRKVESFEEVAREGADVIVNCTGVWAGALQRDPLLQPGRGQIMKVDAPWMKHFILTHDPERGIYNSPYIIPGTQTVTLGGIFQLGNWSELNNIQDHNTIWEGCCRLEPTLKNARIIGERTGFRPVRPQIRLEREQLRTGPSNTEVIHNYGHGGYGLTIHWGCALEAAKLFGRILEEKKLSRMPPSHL

This assay concerns the target Human DAAO (Homo sapiens, UniProt P14920). The experiment in a line: D-Amino Acid Oxidase enzyme assay (D-serine, horseradish peroxidase/Amplex Red coupled fluorescence). The assay is classed as biochemical. Conditions: D-serine 5 mM, pH 7.4. The method, then: DAAO enzyme activity was measured using the substrate D-serine at its Michaelis-Menton Km of 5 mM. The rate of oxidation is measured as a rate of production of hydrogen peroxide, which was detected using the enzyme horseradish peroxidase (Sigma cat. No. P-8375). This coupled reaction uses the enzyme substrate Amplex Red (Molecular Probes), which is converted to the fluorescent reaction product, resorufin (excitation 530-560 nm; emission ˜590 nm). Although DAAO has a higher pH optimum, all reagents were prepared in 50 mM sodium phosphate buffer at pH 7.4 and inhibition curves were generated at this pH.
The final concentrations of components in 200 μl total volume per well (black clear-bottom 96-well plate, Costar) were:
(a) Horseradish peroxidase: 4 Units per mL
(d) Amplex Red reagent: 50 uM
The reactions were initiated by addition of DAAO enzyme and the fluorescence was monitored. H2O2 was added at 16 uM final concentration to a control well on each plate to test for compound interference with a coupled enzyme. Inhibition curves were generated in the presence of varying concentrations of the inhibitor and IC50 values were calculated for each inhibitor.
As to `O=C(O)c1cc2c([nH]1)CCC2Cc1ccc(-c2ccccc2)cc1` (stereo not drawn) [Compound 81, 4-(biphenyl-4-ylmethyl)-1,4,5,6-tetrahydrocyclopenta[b]pyrrole-2-carboxylic acid], the IC50 is no more than 1 µM.

`O=C(O)c1cc2c([nH]1)CCC2Cc1ccc(F)cc1F` (single isomer, unassigned) [Compound 46, 4-(2,4-difluorobenzyl)-1,4,5,6-tetrahydrocyclopenta[b]pyrrole-2-carboxylic acid]: the IC50 was no more than 100 µM.

Take `O=C(O)c1cc2c([nH]1)CCC2c1cccc(F)c1` (single isomer, unassigned) [Compound 95, 4-(3-fluorophenyl)-1,4,5,6-tetrahydrocyclopenta[b]pyrrole-2-carboxylic acid]: the IC50 was no more than 100 µM.

Take `O=C(O)c1cc2c([nH]1)CCC2CCc1ccccc1` (single isomer, unassigned) [Compound 19, 4-phenethyl-1,4,5,6-tetrahydrocyclopenta[b]pyrrole-2-carboxylic acid]: the 50% inhibitory concentration (IC50) was no more than 1 µM.

Consider `O=C(O)c1cc2c([nH]1)C(=O)CC2` [Compound 24, 6-oxo-1,4,5,6-tetrahydro-cyclopenta[b]pyrrole-2-carboxylic acid], for which the 50% inhibitory concentration (IC50) is no more than 1 µM.

Compound `O=C(O)c1cc2c([nH]1)CCC2Cc1cccc(C2CC2)c1` (stereo not drawn) [Compound 73, 4-(3-cyclopropylbenzyl)-1,4,5,6-tetrahydrocyclopenta[b]pyrrole-2-carboxylic acid] registered a 50% inhibitory concentration (IC50) of no more than 0.1 µM.

In the case of `Cc1cc(C)cc(CC2CCc3[nH]c(C(=O)O)cc32)c1` (stereo not drawn) [Compound 72, 4-(3,5-dimethylbenzyl)-1,4,5,6-tetrahydrocyclopenta[b]pyrrole-2-carboxylic acid], the half-maximal inhibitory concentration (IC50) was no more than 100 µM.

The compound `O=C(O)c1cc2c([nH]1)C(CCc1cccc3ccccc13)CC2` (stereo not drawn) [Compound 132, 6-(2-(naphthalen-1-yl)ethyl)-1,4,5,6-tetrahydrocyclopenta[b]pyrrole-2-carboxylic acid] came in with an IC50 of no more than 1 µM.

Compound `COc1ccc(CC2CCc3[nH]c(C(=O)O)cc32)cc1OC` (stereo not drawn) [Compound 69, 4-(3,4-dimethoxybenzyl)-1,4,5,6-tetrahydrocyclopenta[b]pyrrole-2-carboxylic acid] showed an IC50 of no more than 1 µM.

In turn, `O=C(O)c1cc2c([nH]1)CCC2c1cccc(F)c1` (racemic) [Compound 94, 4-(3-fluorophenyl)-1,4,5,6-tetrahydrocyclopenta[b]pyrrole-2-carboxylic acid] registered a 50% inhibitory concentration (IC50) of no more than 0.1 µM.

Compound `CC(=O)c1cccc(CC2CCc3[nH]c(C(=O)O)cc32)c1` (stereo not drawn) [Compound 76, 4-(3-acetylbenzyl)-1,4,5,6-tetrahydrocyclopenta[b]pyrrole-2-carboxylic acid] showed an IC50 of no more than 1 µM.

`CCCC1CCc2[nH]c(C(=O)O)cc21` (racemic) [Compound 7, 4-propyl-1,4,5,6-tetrahydrocyclopenta[b]pyrrole-2-carboxylic acid]: the IC50 was no more than 0.1 µM.

`O=C(O)c1cc2c([nH]1)CCCC2` [Compound 30, 4,5,6,7-tetrahydro-1H-indole-2-carboxylic acid]: the IC50 is no more than 1 µM.

For the compound `COc1cccc(CC2CCc3cc(C(=O)O)[nH]c32)c1` (racemic) [Compound 129, 6-(3-methoxybenzyl)-1,4,5,6-tetrahydrocyclopenta[b]pyrrole-2-carboxylic acid], the IC50 is no more than 0.1 µM.

`NC(=O)c1cccc(CC2CCc3[nH]c(C(=O)O)cc32)c1` (stereo not drawn) [Compound 77, 4-(3-carbamoylbenzyl)-1,4,5,6-tetrahydrocyclopenta[b]pyrrole-2-carboxylic acid] registered an IC50 of no more than 1 µM.

As to `O=C(O)c1cc2c([nH]1)C(Cc1cccc(Br)c1)CC2` (single isomer, unassigned) [Compound 127, 6-(3-bromobenzyl)-1,4,5,6-tetrahydrocyclopenta[b]pyrrole-2-carboxylic acid], the half-inhibitory concentration (IC50) was no more than 0.1 µM.

The compound `O=C(O)c1cc2c([nH]1)CCC2Cc1cccc(-c2ccc(O)cc2)c1` (stereo not drawn) [Compound 85, 4-((4′-hydroxybiphenyl-3-yl)methyl)-1,4,5,6-tetrahydrocyclopenta[b]pyrrole-2-carboxylic acid] showed a concentration for half-maximal inhibition (IC50) of no more than 100 µM.

In the case of `O=C(O)c1cc2c([nH]1)CCC2Cc1cccc(-c2ccco2)c1` (single isomer, unassigned) [Compound 88, 4-(3-(furan-2-yl)benzyl)-1,4,5,6-tetrahydrocyclopenta[b]pyrrole-2-carboxylic acid], the IC50 was no more than 100 µM.

Take `O=C(O)c1cc2c([nH]1)CCC2c1ccc(-c2ccccc2)cc1` (stereo not drawn) [Compound 106, 4-(biphenyl-4-yl)-1,4,5,6-tetrahydrocyclopenta[b]pyrrole-2-carboxylic acid]: the IC50 was no more than 100 µM.

Take `O=C(O)c1cc2c([nH]1)CCC2c1ccc(Cc2ccccc2)cc1` (stereo not drawn) [Compound 107, 4-(4-benzylphenyl)-1,4,5,6-tetrahydrocyclopenta[b]pyrrole-2-carboxylic acid]: the half-maximal inhibitory concentration (IC50) is no more than 1 µM.

`O=C(O)c1[nH]c2c(c1Br)[C@H]1C[C@H]1C2` [Compound 145, (1aS,5aS)-1a,4,5,5a-tetrahydro-1H-2-bromo-4-aza-cyclopropa[α]pentalene-3-carboxylic acid]: the half-inhibitory concentration (IC50) was no more than 100 µM.

`O=C(O)c1cc2c([nH]1)CCC2Cc1ccc(F)cc1F` (racemic) [Compound 45, 4-(2,4-difluorobenzyl)-1,4,5,6-tetrahydrocyclopenta[b]pyrrole-2-carboxylic acid] displayed an IC50 of no more than 0.1 µM.

Compound `O=C(O)c1cc2c([nH]1)CCC2Cc1ccc(Br)cc1` (racemic) [Compound 60, 4-(4-bromobenzyl)-1,4,5,6-tetrahydrocyclopenta[b]pyrrole-2-carboxylic acid] had an IC50 of no more than 0.1 µM.

Consider `O=C(O)c1cc2c([nH]1)C(Cc1ccccc1)CC2` (stereo not drawn) [Compound 26, 6-benzyl-1,4,5,6-tetrahydrocyclopenta[b]pyrrole-2-carboxylic acid], for which the IC50 was no more than 0.1 µM.

Compound `O=C(O)c1cc2c([nH]1)CCC2c1cccc(Br)c1` (stereo not drawn) [Compound 103, 4-(3-bromophenyl)-1,4,5,6-tetrahydrocyclopenta[b]pyrrole-2-carboxylic acid] gave an IC50 of no more than 0.1 µM.

`O=C(O)c1cc2c([nH]1)C(Cc1cccc(Br)c1)CC2` (racemic) [Compound 125, 6-(3-bromobenzyl)-1,4,5,6-tetrahydrocyclopenta[b]pyrrole-2-carboxylic acid] registered a concentration for half-maximal inhibition (IC50) of no more than 0.1 µM.

In turn, `O=C(O)c1cc2c([nH]1)C(c1cccc(Cl)c1)CC2` (stereo not drawn) [Compound 114, 6-(3-chlorophenyl)-1,4,5,6-tetrahydrocyclopenta[b]pyrrole-2-carboxylic acid] had a half-inhibitory concentration (IC50) of no more than 1 µM.

With `COc1cccc(CC2CCc3[nH]c(C(=O)O)cc32)c1` (racemic) [Compound 66, 4-(3-methoxybenzyl)-1,4,5,6-tetrahydrocyclopenta[b]pyrrole-2-carboxylic acid], the IC50 was no more than 0.1 µM.

For `O=C(O)c1cc2c([nH]1)CCC2Cc1ccccc1` (stereo not drawn) [Compound 17, 4-benzyl-1,4,5,6-tetrahydrocyclopenta[b]pyrrole-2-carboxylic acid], the IC50 is no more than 0.1 µM.

`CC(C)C1CCc2[nH]c(C(=O)O)cc21` (stereo not drawn) [Compound 10, 4-isopropyl-1,4,5,6-tetrahydrocyclopenta[b]pyrrole-2-carboxylic acid]: the half-maximal inhibitory concentration (IC50) is no more than 1 µM.

The compound `C[C@H]1[C@H]2Cc3[nH]c(C(=O)O)cc3[C@@H]12` (racemic) [Compound 141, ±(1S,1aS,5aR)-1-methyl-1a,4,5,5a-tetrahydro-1H-4-aza-cyclopropa[α]pentalene-3-carboxylic acid] had an IC50 of no more than 0.1 µM.

For `O=C(O)c1cc2c([nH]1)CCC2Cc1cccc(-c2cccnc2)c1` (stereo not drawn) [Compound 83, 4-(3-(pyridin-3-yl)benzyl)-1,4,5,6-tetrahydrocyclopenta[b]pyrrole-2-carboxylic acid], the IC50 was no more than 1 µM.

In turn, `O=C(O)c1cc2c([nH]1)CCCC2Cc1ccccc1` (stereo not drawn) [Compound 32, 4-benzyl-4,5,6,7-tetrahydro-1H-indole-2-carboxylic acid] showed an IC50 of no more than 100 µM.

Consider `Cc1c(C(=O)O)[nH]c2c1C(=O)CCC2` [Compound 31, 3-methyl-4-oxo-4,5,6,7-tetrahydro-1H-indole-2-carboxylic acid], for which the half-maximal inhibitory concentration (IC50) is no more than 100 µM.

Turning to `O=C(O)c1cc2c([nH]1)C(Cc1cccc(O)c1)CC2` (stereo not drawn) [Compound 128, 6-(3-hydroxybenzyl)-1,4,5,6-tetrahydrocyclopenta[b]pyrrole-2-carboxylic acid], the half-maximal inhibitory concentration (IC50) is no more than 0.1 µM.

On to `O=C(O)c1cc2c([nH]1)C(Cc1cccc(Br)c1)CC2` (single isomer, unassigned) [Compound 126, 6-(3-bromobenzyl)-1,4,5,6-tetrahydrocyclopenta[b]pyrrole-2-carboxylic acid], for which the IC50 is no more than 100 µM.

In turn, `O=C(O)c1cc2c([nH]1)C(=Cc1ccccc1)CC2` (mixture of isomers) [Compound 25, (E/Z)-6-benzylidene-1,4,5,6-tetrahydrocyclopenta[b]pyrrole-2-carboxylic acid] gave an IC50 of no more than 100 µM.

For the compound `O=C(O)c1cc2c([nH]1)C(CCCc1ccccc1)CC2` (single isomer, unassigned) [Compound 136, 6-(3-phenylpropyl)-1,4,5,6-tetrahydrocyclopenta[b]pyrrole-2-carboxylic acid], the IC50 was no more than 1 µM.

Compound `O=C(O)c1cc2c([nH]1)CCC2CCCc1ccccc1` (stereo not drawn) [Compound 36, 4-(3-phenylpropyl)-1,4,5,6-tetrahydrocyclopenta[b]pyrrole-2-carboxylic acid] registered an IC50 of no more than 1 µM.
